The values that follow come from ChEMBL document CHEMBL5252572, “Design, synthesis, and anti-triple negative breast cancer activity of novel Toosendanin derivatives” (Bioorg Med Chem Lett, 2023).

Structures can show the parent of a compound that is named as a salt. The source made the active and inactive calls. The rule behind the calls is not given here.

Experiment [1] relates to MDA-MB-231. Briefly: Antiproliferative activity against human MDA-MB-231 cells assessed as inhibition of cell growth at 20 uM by SRB assay relative to control. The format is functional. A general note: Sulforhodamine B stains cellular protein and so reports cell mass.
For experiment [2], the system named is HCC1806. Briefly: Antiproliferative activity against human HCC1806 cells assessed as inhibition of cell growth at 20 uM by SRB assay relative to control. The format is functional.
Experiment [3] deals with MDA-MB-231. Briefly: Antiproliferative activity against human MDA-MB-231 cells assessed as inhibition of cell growth by SRB assay. It is filed as functional, cell-based.
Experiment [4] has as its system HCC1806. Briefly: Antiproliferative activity against human HCC1806 cells assessed as inhibition of cell growth by SRB assay. The format is functional, cell-based.
The test system of experiment [5] is HCC1806. Briefly: Induction of cell cycle arrest in human HCC1806 cells assessed as accumulation at S phase at 10 uM incubated for 24 hrs by flow cytometric analysis. The format is functional, cell-based.
The subject of experiment [6] is HCC1806. Briefly: Induction of cell cycle arrest in human HCC1806 cells assessed as decrease in G2/M phase cells at 10 uM incubated for 24 hrs by flow cytometric analysis. The format is functional, cell-based.
For experiment [7], the target named is RAC-alpha serine/threonine-protein kinase (Homo sapiens) (UniProt P31749). Briefly: Inhibition of AKT phosphorylation in human HCC1806 cells at 10 uM incubated for 24 hrs by Western blot analysis. The format is cell-based.
Experiment [8] has as its system HCC1806. Briefly: Inhibition of ERK phosphorylation in human HCC1806 cells at 10 uM incubated for 24 hrs by Western blot analysis. The format is cell-based. (In general: A western blot detects proteins with antibodies after separation by electrophoresis.)
In experiment [9] the test system is HCC1806. Briefly: Antitumor activity against human HCC1806 cells assessed as reduction in p53 protein level at 10 uM incubated for 24 hrs by Western blot analysis. It is filed as functional, cell-based.
Experiment [10] concerns HCC1806. Briefly: Antitumor activity against human HCC1806 cells assessed as induction of phosphorylated p38 protein accumulation at 10 uM incubated for 24 hrs by Western blot analysis. The format is functional, cell-based.
Experiment [11] relates to HCC1806. Briefly: Antitumor activity against human HCC1806 cells assessed as induction of p21 protein accumulation at 10 uM incubated for 24 hrs by Western blot analysis. It is filed as functional, cell-based.
In experiment [12] the test system is 4T1. Briefly: Antitumor activity against mouse 4T1 cells implanted in BALB/C mouse assessed as tumor growth inhibition at 4 mg/kg administered once every two days for 15 days in the presence of toosendanin relative to control. To be noted: 4T1, 360 h, time 15 day, read-out: TGI. The format is functional.
Experiment [13] deals with 4T1. Briefly: Antitumor activity against mouse 4T1 cells implanted in BALB/C mouse assessed as tumor growth inhibition at 0.69 mg/kg administered once every two days for 15 days in the presence of adriamycin relative to control. It is filed as functional. To be noted: 4T1, 360 h, time 15 day, read-out: TGI.

Sequence of RAC-alpha serine/threonine-protein kinase (Homo sapiens) (P31749 whole entry): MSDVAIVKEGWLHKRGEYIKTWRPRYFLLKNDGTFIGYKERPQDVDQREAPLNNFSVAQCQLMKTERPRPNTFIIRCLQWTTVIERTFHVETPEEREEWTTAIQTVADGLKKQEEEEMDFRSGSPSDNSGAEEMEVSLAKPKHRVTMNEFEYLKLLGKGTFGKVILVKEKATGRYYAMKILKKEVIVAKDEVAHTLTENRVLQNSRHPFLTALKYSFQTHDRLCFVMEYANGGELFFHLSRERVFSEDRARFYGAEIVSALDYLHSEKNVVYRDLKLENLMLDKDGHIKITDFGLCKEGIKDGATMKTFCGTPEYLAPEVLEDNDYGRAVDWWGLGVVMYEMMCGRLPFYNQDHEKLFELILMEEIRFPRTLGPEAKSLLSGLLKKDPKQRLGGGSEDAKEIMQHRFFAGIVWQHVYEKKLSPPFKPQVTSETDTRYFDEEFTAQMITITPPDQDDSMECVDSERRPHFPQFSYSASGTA

Broadly, the inhibition is the drop in the measured response relative to a control, in per cent. Regarding `CC(=O)OC1OC[C@]23[C@@H](OC(C)=O)C[C@@H](OC(C)=O)[C@@]1(C)[C@@H]2C[C@@H](OC(C)=O)[C@]1(C)[C@@H]3C(=O)[C@H](OC(C)=O)[C@@]2(C)[C@H](c3ccoc3)C[C@H]3O[C@@]312` (stereo partly drawn), the inhibition at 20 µM was 128% in [1] and -31% in experiment [2].
On to `COC1OC[C@]23[C@@H](O)C[C@@H](OC(C)=O)[C@@]1(C)[C@@H]2C[C@@H](O)[C@@]1(C)[C@@H]2C(=O)C[C@@H](c4ccoc4)[C@]2(C)[C@@H](OC(C)=O)C(=O)[C@@H]13` (stereo partly drawn), for which the inhibition at 20 µM in experiment [1] is 4.29%; in [2], -15.8%.
The corresponding values for `COc1ccc(C(=O)O[C@@H]2C[C@H]3[C@@]4(C)COC[C@@]3([C@@H](O)C[C@H]4OC(C)=O)[C@H]3C(=O)[C@H](OC(C)=O)[C@]4(C)[C@@H](C(=O)C[C@H]4c4ccoc4)[C@]23C)cc1` are 14.3% and 0.37%.
`CC(=O)O[C@@H]1C[C@H](O)[C@@]23COC[C@]1(C)[C@@H]2C[C@@H](O)[C@@]1(C)[C@@H]2/C(=N/O)C[C@@H](c4ccoc4)[C@]2(C)[C@@H](OC(C)=O)C(=O)[C@@H]13`: the inhibition at 20 µM worked out at 4.72% in [1] and 10.9% in [2].
The matching figures for `CC(=O)O[C@@H]1C[C@H](O)[C@@]23COC[C@]1(C)[C@@H]2C[C@@H](OC(=O)/C=C/c1ccc(OC(F)(F)F)cc1)[C@@]1(C)[C@@H]2C(=O)C[C@@H](c4ccoc4)[C@]2(C)[C@@H](OC(C)=O)C(=O)[C@@H]13`: 9.9% and 18.1%.
By IC50 is commonly meant the concentration at which inhibition is half-maximal. Take `CC(=O)O[C@@H]1C[C@H](O)[C@@]23COC(=O)[C@]1(C)[C@@H]2C[C@@H](O)[C@]1(C)[C@@H]3C(=O)[C@H](OC(C)=O)[C@@]2(C)[C@H](c3ccoc3)C[C@H]3O[C@]321`: the inhibition at 20 µM in experiment [1] came to 68.7%; in [2], 93.8%. Also, the IC50 stood at 6.61 µM in experiment [3] and 0.98 µM in [4]. The outcome in [5], in [6], in experiment [9], in experiment [10] and in [11] was Active. Also, the inhibition entry in experiment [7] and in [8] was “Active” each time.
In the case of `CC(=O)O[C@@H]1C[C@H](O)[C@@]23COC[C@]1(C)[C@@H]2C[C@@H](OC(=O)c1ccc([N+](=O)[O-])cc1)[C@@]1(C)[C@@H]2C(=O)C[C@@H](c4ccoc4)[C@]2(C)[C@@H](OC(C)=O)C(=O)[C@@H]13`, the inhibition at 20 µM in experiment [1] was 3.95%; in experiment [2] it was -0.88%.
The corresponding values for `CC(=O)O[C@@H]1C[C@H](O)[C@@]23COC[C@]1(C)[C@@H]2C[C@@H](OC(=O)c1ccccc1F)[C@@]1(C)[C@@H]2C(=O)C[C@@H](c4ccoc4)[C@]2(C)[C@@H](OC(C)=O)C(=O)[C@@H]13` are 8.23% and -1.53%.
For the compound `COc1cccc2c1C(=O)c1c(O)c3c(c(O)c1C2=O)C[C@@](O)(C(=O)CO)C[C@@H]3O[C@H]1C[C@H](N)[C@H](O)[C@H](C)O1` [DOXORUBICIN HYDROCHLORIDE], the inhibition in vivo at 4 mg/kg in [12] amounted to 90%.
For the compound `CC(=O)O[C@@H]1C[C@H](O)[C@@]23COC[C@]1(C)[C@@H]2C[C@@H](O)[C@@]1(C)[C@@H]2C(=O)C[C@@H](c4ccoc4)[C@]2(C)[C@@H](OC(C)=O)C(=O)[C@@H]13`, the inhibition at 20 µM in experiment [1] is 5.4%; in [2], -42.3%.
With `CC(=O)O[C@@H]1C[C@H](O)[C@@]23COC(=O)[C@]1(C)[C@@H]2C[C@@H](O)[C@@]1(C)[C@@H]2C(=O)C[C@@H](c4ccoc4)[C@]2(C)[C@@H](OC(C)=O)C(=O)[C@@H]13`, the results for the inhibition at 20 µM in experiment [1] and in experiment [2] were 6.87% and -24.7%, respectively.
The matching figures for `CC(=O)O[C@@H]1C[C@H](O)[C@@]23COC[C@]1(C)[C@@H]2C[C@@H](OC(=O)c1ccccc1)[C@@]1(C)[C@@H]2C(=O)C[C@@H](c4ccoc4)[C@]2(C)[C@@H](OC(C)=O)C(=O)[C@@H]13`: 20.7% and 14.9%.
Take `CC(=O)O[C@H]1C[C@@H](OC(C)=O)[C@]2(C)C(O)OC[C@]13[C@H]1C(=O)[C@H](OC(C)=O)[C@@]4(C)[C@H](c5ccoc5)C[C@H]5O[C@]54[C@]1(C)[C@H](OC(C)=O)C[C@@H]23` (stereo partly drawn): the inhibition at 20 µM in [1] was 6.36%; in experiment [2], -27.9%.
As for `CC(=O)O[C@@H]1C[C@H](O)[C@@]23CO[C@@H](O)[C@]1(C)[C@@H]2C[C@@H](O)[C@]1(C)[C@@H]3C(=O)[C@H](OC(C)=O)[C@@]2(C)[C@H](c3ccoc3)C[C@H]3O[C@]321` [TOOSENDANIN], the inhibition at 20 µM in experiment [1] stood at 79.2%; in experiment [2], 101%. Further, the IC50 is 0.115 µM in [3] and 0.019 µM in [4]. Moreover, the result in experiment [5], in [6], in experiment [9], in experiment [10] and in [11] was Active. In addition, the inhibition in vivo at 0.69 mg/kg in experiment [13] worked out at 90%. Also, the inhibition entry in experiment [7] and in experiment [8] was “Active” in each case.
Regarding `CC(=O)O[C@@H]1C[C@H](O)[C@@]23COC[C@]1(C)[C@@H]2C[C@@H](O)[C@@]1(C)[C@@H]2C(=O)C[C@@H](c4coc(Br)c4)[C@]2(C)[C@@H](OC(C)=O)C(=O)[C@@H]13`, the inhibition at 20 µM in experiment [1] was -5.16%; in [2] it was 2.97%.
`CC(=O)O[C@@H]1C[C@H](O)[C@@]23COC[C@]1(C)[C@@H]2C[C@@H](O)[C@@]1(C)[C@@H]2[C@@H](O)C[C@@H](c4ccoc4)[C@]2(C)[C@@H](OC(C)=O)C(=O)[C@@H]13`: the results for the inhibition at 20 µM in [1] and in [2] were 61.5% and 87.3%, respectively. The IC50 is 11.8 µM in experiment [3] and 5.76 µM in [4].
Take `CC(=O)O[C@H]1C[C@@H](OC(C)=O)[C@]2(C)C(=O)OC[C@]13[C@H]1C(=O)[C@H](OC(C)=O)[C@@]4(C)[C@H](c5ccoc5)C[C@H]5O[C@]54[C@]1(C)[C@H](OC(C)=O)C[C@@H]23`: the inhibition at 20 µM in experiment [1] was 4.86%; in [2], -9.68%.
For `CC(=O)O[C@@H]1C[C@H](O)[C@@]23COC[C@]1(C)[C@@H]2CC(=O)[C@@]1(C)[C@@H]2C(=O)C[C@@H](c4ccoc4)[C@]2(C)[C@@H](OC(C)=O)C(=O)[C@@H]13`, the inhibition at 20 µM is 11.7% in [1] and 14.7% in experiment [2].
`CC(=O)O[C@@H]1C[C@H](O)[C@@]23COC(=O)[C@]1(C)[C@@H]2C[C@@H](O)[C@]1(C)[C@@H]3C(=O)C(O)[C@@]2(C)[C@H](c3ccoc3)C[C@H]3O[C@@]312` (mixture of isomers): the inhibition at 20 µM in [1] was 9.58%; in [2] it was 9.96%.
